From patent US20250228878A1, “METHOD FOR THE SYNTHESIS OF EVOC PROBES” (OWLSTONE MEDICAL LIMITED, priority 2021, published 2025)

What was measured:
β-glucuronidase = target: T1, β-glucuronidase (Homo sapiens, UniProt P08236); test: Breath test: D5-ethanol in exhaled breath after intravenous probe administration (TD-GC-MS); assay type: in vivo; conditions: for D5-ethanol detected on breath: 2 mg/kg intravenous
T1 construct: from tissue; host or cells: in vivo, human subjects (healthy subjects and a lung cancer patient); endogenous enzyme
T1 sequence (P08236 23-651): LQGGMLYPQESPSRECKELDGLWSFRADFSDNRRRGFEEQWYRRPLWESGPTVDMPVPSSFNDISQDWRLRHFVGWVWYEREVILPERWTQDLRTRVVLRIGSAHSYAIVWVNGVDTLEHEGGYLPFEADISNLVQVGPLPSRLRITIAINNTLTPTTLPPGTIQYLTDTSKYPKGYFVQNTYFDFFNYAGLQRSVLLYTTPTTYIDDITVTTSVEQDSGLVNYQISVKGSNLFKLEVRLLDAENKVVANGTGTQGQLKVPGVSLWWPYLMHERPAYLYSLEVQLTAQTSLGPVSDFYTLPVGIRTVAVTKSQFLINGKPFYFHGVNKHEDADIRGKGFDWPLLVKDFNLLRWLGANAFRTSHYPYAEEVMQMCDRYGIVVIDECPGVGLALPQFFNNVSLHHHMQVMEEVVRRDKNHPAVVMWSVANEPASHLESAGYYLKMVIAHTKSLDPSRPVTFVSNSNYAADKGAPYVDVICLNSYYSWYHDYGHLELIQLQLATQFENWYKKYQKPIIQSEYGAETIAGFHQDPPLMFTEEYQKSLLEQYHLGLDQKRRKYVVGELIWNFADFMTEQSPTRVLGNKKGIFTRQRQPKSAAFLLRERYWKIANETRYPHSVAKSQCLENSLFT
Experimental: D5-ethyl-βD-glucuronide was administered to healthy subjects and a lung cancer patient at a concentration of 2 mg/kg. Administration was intravenous.
The concentration of the metabolite was then measured in breath samples. Breath samples were collected using ReCIVA® Breath Sampler at the indicated times following probe administration. Following breath collection sorbent tubes were removed from ReCIVA®, capped off and sent to Owlstone Medical for analysis. At Owlstone Medical the sorbent tubes were analysed for D5-ethanol using TD-GC-MS.

[1] = test system: tumor specific extracellular β-glucuronidase; conditions: healthy versus tumor bearing mice; cited from earlier work
blood cells = test: D5-ethanol release in blood incubated with D5-EG or D5-EG-ME (headspace measurement); assay type: cell-based; conditions: human blood, 37° C., 2 hours
Experimental: Aim—The following experiment was performed to compare the levels of D5-ethanol produced by blood cells from both D5-ethyl-βD-glucuronide and the D5-ethyl-βD-glucuronide-methyl ester impurity. To understand how the probe behaves in human blood. To determine the background cleavage of the probe (D5-ethyl-βD-glucuronide) and the methyl ester (D5-ethyl-βD-glucuronide-methyl ester) in blood at different concentrations. The cleaved D5-ethanol was extracted from the headspace of the blood and measured with the D5-ethanol analytical method.
• Dilute D5-ethyl-βD-glucuronide in PBS to 1 ug/ul. • Dilute 10 ul of this in 90 ul PBS to 100 ng/ul to use for smaller doses. • Blood drawn on the same day will be despatched to OML after it has been screened. • Aliquot 600 ul of blood into ITEX headspace vials. 10 vials for probe samples and 10 vials for methyl ester samples. • Add indicated concentration of D5-ethyl-βD-glucuronide (Table 1) and D5-ethyl-bD-glucuronide meth methyl ester (Table 2) in each vial. • Incubate all samples at 37° C. for 2 hours in the water bath. • After 2 hours add 100 uM D-saccharic acid-1,4-lactone with a syringe through septum of each ITEX vial and mix gently to inhibit β-glucuronidase activity and put on ice (4° C.) • Place samples on ITEX autosampler and measure D5-ethanol with D5-ethanol analytical method
Results—β-glucuronidase is only expected to be present intracellularly in blood cells. D5-ethyl-βD-glucuronide (D5-EG) is not cell permeable and would therefore not enter into the cells to get cleaved by b-glucuronidase to produce D5-ethanol. Low D5-ethanol levels are therefore expected in blood when incubated with D5-ethyl-βD-glucuronide.
D5-ethyl-βD-glucuronide-methyl ester (D5-EG-ME) is expected to be more cell permeable. If this is the case it would be able to enter into the cell to get cleaved by intracellular β-glucuronidase resulting in an increased in D5-ethanol production.

[2] = highest concentration tested (FIG. 2)

D5-ethanol detected on breath (β-glucuronidase; healthy controls)	D5-ethanol detected on breath (β-glucuronidase; lung cancer patient (Stage IIA))	earliest time at which the metabolite (D5-ethanol) can be detected in breath after administration (β-glucuronidase; lung cancer patient, 2 mg/kg intravenous (FIG. 6))	Structure (SMILES)	D5-ethanol signal in breath [1]	D5-ethanol production from blood cells (blood cells; [2])	D5-ethanol production from blood cells (blood cells; second highest concentration tested (FIG. 2))
No D5-ethanol was detected	A D5 ethanol signal was detected	10 min	[2H]C([2H])([2H])C([2H])([2H])O[C@@H]1O[C@H](C(=O)O)[C@@H](O)[C@H](O)[C@H]1O [D5-EG, D5-ethyl-βD-glucuronide]	discriminatory D5-ethanol signal in the breath of mice with tumors	only a small amount of D5-ethanol were produced	–
–	–	–	[2H]C([2H])([2H])C([2H])([2H])O[C@@H]1O[C@H](C(=O)OC)[C@@H](O)[C@H](O)[C@H]1O [D5-EG-ME, D5-ethyl-βD-glucuronide-methyl ester]	–	much higher D5-ethanol levels produced	much higher D5-ethanol levels produced
